{"source": "patent US12329745B2", "about": "“Methods and compositions for treating glucocorticoid excess” (Sparrow Pharmaceuticals, Inc., priority 2022, dated 2025)", "key": {"[1]": {"tested_on": "urine tetrahydrocortisone", "conditions": "healthy adults and elderly subjects; 7-21 days; cited from earlier work"}, "[2]": {"conditions": "INCB-13739 diabetes; R05093151 non-alcoholic fatty liver disease; AZD4017 impaired wound healing; ABT-384 dementia; BI-187004 diabetes; cited from earlier work"}, "brain HSD-1": {"target": "T1, brain HSD-1 (Homo sapiens, UniProt P28845)", "T1 construct": "Brain HSD-1 occupancy following a single dose of SPI-62 3 mg; from tissue; host or cells: brain in vivo", "T1 sequence (P28845 whole entry)": "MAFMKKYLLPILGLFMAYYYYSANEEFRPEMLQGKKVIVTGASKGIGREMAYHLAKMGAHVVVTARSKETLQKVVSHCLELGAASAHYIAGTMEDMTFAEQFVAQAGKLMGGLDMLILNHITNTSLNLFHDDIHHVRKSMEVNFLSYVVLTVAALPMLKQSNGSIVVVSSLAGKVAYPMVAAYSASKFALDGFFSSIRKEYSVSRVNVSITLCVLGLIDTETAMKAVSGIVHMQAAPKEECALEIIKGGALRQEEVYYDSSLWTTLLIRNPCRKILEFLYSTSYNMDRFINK", "conditions": "healthy adults; cited from earlier work"}, "HSD-1 [3]": {"target": "T2, HSD-1 (Homo sapiens, UniProt P28845)", "T2 sequence (P28845 whole entry)": "as above", "assay": "Surface plasmon resonance binding kinetics in presence of NADPH (residence time)", "conditions": "300 μM NADPH, reciprocal of the dissociation rate constant", "description": "Pseudo-irreversible HSD-1 inhibitors can be identified via in vitro enzyme kinetics evaluation, in which they are expected to show longer enzyme residence times compared to other HSD-1 inhibitors. Surface plasmon resonance (SPR) is the resonant oscillation of conduction electrons at the interface between negative and positive permittivity material stimulated by incident light. When a protein is bound to a surface, SPR can be used to detect ligand binding to the protein. […] Association and dissociation of test compounds were monitored in the presence of 300 µM NADPH throughout the experiment."}, "[4]": {"conditions": "cited from earlier work; for plasma exposures after single doses, dose proportionality: low single doses; for estimated target capacity / capacity of saturable distribution: population pharmacokinetics model"}, "HSD-1 [5]": {"target": "T2, HSD-1", "assay": "Target-mediated drug disposition (TMDD) population PK / PK-PD model", "conditions": "in vivo"}, "[6]": {"conditions": "cynomolgus monkey liver; cited from earlier work"}, "adipose HSD-1": {"target": "T3, adipose HSD-1 (Homo sapiens, UniProt P28845)", "T3 construct": "infused continuously into subcutaneous abdominal adipose tissue via microdialysis catheters; from tissue; host or cells: human subcutaneous abdominal adipose tissue, in vivo", "T3 sequence (P28845 whole entry, the tested form may be a part)": "as the sequence (P28845 whole entry) above", "conditions": "in vivo; cited from earlier work"}, "liver HSD-1": {"target": "liver HSD-1 (Homo sapiens, UniProt P28845)", "sequence (P28845 whole entry)": "as above", "conditions": "same subjects, multiple doses; cited from earlier work"}, "skin HSD-1": {"target": "skin HSD-1 (Homo sapiens, UniProt P28845)", "sequence (P28845 whole entry)": "as above", "conditions": "in vivo; cited from earlier work"}, "mouse": {"tested_on": "mouse", "conditions": "cited from earlier work"}, "rabbit": {"tested_on": "rabbit", "conditions": "cited from earlier work"}, "[7]": {"conditions": "read-out: Residence Time (converted)"}}, "note": "Where two headings read alike, the source gives them in different places."}
{"smiles": "CC(C)(C(=O)N[C@H]1C2CC3CC1C[C@@](C(N)=O)(C3)C2)N1CCN(c2ccc(C(F)(F)F)cn2)CC1", "note": "[ABT-384, (1s,3R,4r,5S,7s)-4-(2-methyl-2-(4-(5-(trifluoromethyl)pyridin-2-yl)piperazin-1-yl)propanamido)adamantane-1-carboxamide]", "values": [{"measurement": "liver cortisone levels (urine tetrahydrocortisone)", "setting": "[1]", "result": "increased substantially"}, {"measurement": "clinical trial efficacy", "setting": "[2]", "result": "lack of efficacy"}, {"measurement": "time after cessation of daily administration up to which complete brain HSD-1 inhibition was observed", "setting": "brain HSD-1", "result": "up to 40 hours"}, {"measurement": "residence time", "setting": "HSD-1 [3]; [7]", "result": 43.5, "unit": "min"}, {"measurement": "plasma levels after multiple doses / steady state, dose proportionality", "setting": "[4]; in vivo", "result": "approximately dose-proportional"}, {"measurement": "plasma exposures after single doses, dose proportionality", "setting": "[4]", "result": "substantial non-linearity"}, {"measurement": "estimated target capacity / capacity of saturable distribution", "setting": "[4]", "result": "~1", "unit": "mg"}, {"measurement": "Kd lower than the Ki", "setting": "HSD-1 [5]", "result": "approximately 60 fold"}, {"measurement": "retention in liver", "setting": "[6]", "result": "at least 77 days"}]}
{"smiles": "CC(C)[C@]1(C)SC(N[C@H]2C[C@@H]3CC[C@H]2C3)=NC1=O", "note": "[AMG-221, (S,E)-2-(((1S,2S,4R)-bicyclo[2.2.1]heptan-2-yl)imino)-5-isopropyl-5-methylthiazolidin-4-one]", "values": [{"measurement": "plasma exposures after single doses, dose proportionality", "setting": "[4]", "result": "nonlinearity of pharmacokinetics"}]}
{"smiles": "CCCSc1nc(N2CCC[C@@H](CC(=O)O)C2)ccc1C(=O)NC1CCCCC1", "note": "[AZD4017, (S)-2-(1-(5-(cyclohexylcarbamoyl)-6-(propylthio)pyridin-2-yl)piperidin-3-yl)acetic acid]", "values": [{"measurement": "adipose HSD-1 inhibition after a single dose", "setting": "adipose HSD-1", "result": "demonstrated adipose HSD-1 inhibition"}, {"measurement": "adipose HSD-1 inhibition after repeated dosing", "setting": "adipose HSD-1", "result": "no sustained inhibitory effect"}, {"measurement": "tachyphylaxis of human adipose HSD-1 inhibition with multiple dosing", "setting": "adipose HSD-1", "result": "showed tachyphylaxis"}, {"measurement": "liver HSD-1 inhibition", "setting": "liver HSD-1", "result": "maximal"}, {"measurement": "skin HSD-1 inhibition after multiple doses", "setting": "skin HSD-1", "result": "no skin HSD-1 inhibition"}]}
{"smiles": "CC(C)(C)c1c(C(=O)NC2C3CC4CC(C3)CC2C4)cnn1-c1ccc(C(=O)O)cc1", "note": "(centres unmarked) [AZD8329, 4-(4-(((1r,3r,5r,7r)-adamantan-2-yl)carbamoyl)-5-(tert-butyl)-1H-pyrazol-1-yl)benzoic acid]", "values": [{"measurement": "residence time", "setting": "HSD-1 [3]; [7]", "result": 3.45, "unit": "min"}, {"measurement": "adipose HSD-1 inhibition after repeated dosing", "setting": "adipose HSD-1", "result": "lost"}, {"measurement": "tachyphylaxis of human adipose HSD-1 inhibition with multiple dosing", "setting": "adipose HSD-1", "result": "showed tachyphylaxis"}]}
{"smiles": "N#Cc1ccc2c(c1)[C@H]1CCCN(C(=O)c3ccc4nc[nH]c4c3)[C@H]1C2", "note": "[BI-187004, (4aR,9aS)-1-(1H-benzo[d]imidazole-6-carbonyl)-2,3,4,4a,9,9a-hexahydro-1H-indeno[2,1-b]pyridine-6-carbonitrile]", "values": [{"measurement": "clinical trial efficacy", "setting": "[2]", "result": "lack of efficacy"}, {"measurement": "plasma exposures after single doses, dose proportionality", "setting": "[4]", "result": "substantially below"}]}
{"smiles": "O=C(CC1(c2ccccc2)C2CC3CC1CC(C2)C3O)N1CC(O)C1", "note": "(centres unmarked) [BMS-816336]", "values": [{"measurement": "residence time", "setting": "HSD-1 [3]", "result": 2.15, "unit": "min"}]}
{"smiles": "CC(C)(O)c1cccn2c(C3(c4ccc(Cl)cc4)CC3)nnc12", "note": "[BMS-823778, 2-(3-(1-(4-chlorophenyl)cyclopropyl)-[1,2,4]triazolo[4,3-a]pyridin-8-yl)propan-2-ol]", "values": [{"measurement": "residence time", "setting": "HSD-1 [3]; [7]", "result": 2.03, "unit": "min"}, {"measurement": "plasma levels after a single 0.1 or 0.5 mg dose", "setting": "[4]; in vivo", "result": "not detected"}, {"measurement": "plasma levels after multiple doses / steady state, dose proportionality", "setting": "[4]; in vivo", "result": "dose proportional"}, {"measurement": "plasma exposures after single doses, dose proportionality", "setting": "[4]", "result": "less than dose proportional"}]}
{"smiles": "CC1(C)[C@@H](OC(=O)CCC(=O)O)CC[C@]2(C)[C@H]3C(=O)C=C4[C@@H]5C[C@@](C)(C(=O)O)CC[C@]5(C)CC[C@@]4(C)[C@]3(C)CC[C@@H]12", "note": "[Carbenoxolone]", "values": [{"measurement": "GC-induced wound healing impairment", "setting": "mouse", "result": "prevented"}]}
{"smiles": "CC1(C)[C@@H](O[C@H]2O[C@H](C(=O)O)[C@@H](O)[C@H](O)[C@H]2O[C@@H]2O[C@H](C(=O)O)[C@@H](O)[C@H](O)[C@H]2O)CC[C@]2(C)[C@H]3C(=O)C=C4[C@@H]5C[C@@](C)(C(=O)O)CC[C@]5(C)CC[C@@]4(C)[C@]3(C)CC[C@@H]12", "note": "[Glycyrrhizin]", "values": [{"measurement": "intraocular pressure increase associated with intravitreal triamcinolone", "setting": "rabbit", "result": "partially prevented"}]}
{"smiles": "CNC(=O)c1ccc(-c2ccc(C3(C(=O)N4CC[C@@]5(C4)OC(=O)c4ccccc45)CC3)cc2)cn1", "note": "[INCB-13739]", "values": [{"measurement": "clinical trial efficacy", "setting": "[2]", "result": "support efficacy"}, {"measurement": "residence time", "setting": "HSD-1 [3]", "result": 4.53, "unit": "min"}]}
{"smiles": "CC1CN(CC(=O)NC2C3CC4CC2CC(C(N)=O)(C4)C3)S(=O)(=O)N(c2c(Cl)cc(C(F)(F)F)cc2Cl)C1", "note": "[KR-67607, (1s,3R,4s,5S,7s)-4-(2-(6-(2,6-dichloro-4-(trifluoromethyl)phenyl)-4-methyl-1,1-dioxido-1,2,6-thiadiazinan-2-yl)acetamido)adamantane-1-carboxamide]", "values": [{"measurement": "residence time", "setting": "HSD-1 [3]; [7]", "result": 8.63, "unit": "min"}]}
{"smiles": "CCS(=O)(=O)CCCC12CCC(c3nnc(-c4ccccc4C(F)(F)F)n3C)(CC1)CC2", "note": "[MK-0736, 3-(4-(3-(ethylsulfonyl)propyl)bicyclo[2.2.2]octan-1-yl)-4-methyl-5-(2-(trifluoromethyl)phenyl)-4H-1,2,4-triazole]", "values": [{"measurement": "plasma exposures after single doses, dose proportionality", "setting": "[4]", "result": "non-linear, saturable distribution PK"}]}
{"smiles": "F[C@H]1C[C@@](c2ccc(Cl)cc2)(c2nnc(C3CC3)n2C2CC2)C1", "note": "[MK-0916, 3-((1s,3s)-1-(4-chlorophenyl)-3-fluorocyclobutyl)-4,5-dicyclopropyl-4H-1,2,4-triazole]", "values": [{"measurement": "residence time", "setting": "HSD-1 [3]; [7]", "result": 3.25, "unit": "min"}, {"measurement": "plasma levels after multiple doses / steady state, dose proportionality", "setting": "[4]; in vivo", "result": "approximately dose-proportional"}, {"measurement": "plasma exposures after single doses, dose proportionality", "setting": "[4]", "result": "substantial non-linearity"}, {"measurement": "estimated target capacity / capacity of saturable distribution", "setting": "[4]", "result": "~3", "unit": "mg"}]}
{"smiles": "N#Cc1ccc(-c2ccc(S(=O)(=O)Nc3cccc(N)n3)cc2)cc1", "note": "[PF915275]", "values": [{"measurement": "GC-induced wound healing impairment", "setting": "mouse", "result": "prevented"}, {"measurement": "residence time", "setting": "HSD-1 [3]", "result": 5.07, "unit": "min"}]}
{"smiles": "O=C(c1csc(-c2cn[nH]c2)c1)N1[C@@H]2CC[C@H]1C[C@](O)(c1ncccn1)C2", "note": "[UE-2343, (5-(1H-pyrazol-4-yl)thiophen-3-yl)((1R,3r,5S)-3-hydroxy-3-(pyrimidin-2-yl)-8-azabicyclo[3.2.1]octan-8-yl)methanone]", "values": [{"measurement": "residence time", "setting": "HSD-1 [3]", "result": 9.05, "unit": "min"}, {"measurement": "plasma levels after single doses of 2 and 5 mg", "setting": "[4]; in vivo", "result": "below the level of quantification"}, {"measurement": "plasma exposures after single doses, dose proportionality", "setting": "[4]", "result": "greater than dose-proportional"}, {"measurement": "mean maximum plasma concentration", "setting": "[4]; single 10 mg dose", "result": 40.4, "unit": "ng/mL"}]}
